One test deals with T1, PPARδ (Homo sapiens, UniProt Q03181).
T1 construct: Because of Wnt signal activity, SW480 cells overexpress the transcription factor PPARδ; endogenous in cells; host or cells: SW480 colon carcinoma cells
T1 sequence (Q03181 1-441): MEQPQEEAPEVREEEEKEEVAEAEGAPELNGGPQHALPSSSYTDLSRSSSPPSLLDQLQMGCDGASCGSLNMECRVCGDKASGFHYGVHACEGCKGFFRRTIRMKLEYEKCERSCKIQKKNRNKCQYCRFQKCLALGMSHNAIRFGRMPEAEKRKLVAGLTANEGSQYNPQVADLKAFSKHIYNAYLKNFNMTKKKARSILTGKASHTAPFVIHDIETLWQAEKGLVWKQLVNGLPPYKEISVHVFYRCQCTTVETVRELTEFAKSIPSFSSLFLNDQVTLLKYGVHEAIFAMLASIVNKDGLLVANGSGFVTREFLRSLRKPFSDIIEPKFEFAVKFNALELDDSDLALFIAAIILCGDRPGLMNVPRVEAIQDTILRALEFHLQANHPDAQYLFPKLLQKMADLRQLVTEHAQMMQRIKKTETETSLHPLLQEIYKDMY
In words: PPARδ-responsive αGFPT204I reporter gene expression in transfected SW480 cells incubated with NSAIDs, flow cytometry. It counts as cell-based. Conditions: 300 μM, 10 hour incubation of transfected SW480 cells; expression returns virtually to background level.

In another test the test system is tumor cells. Conditions: by inhibiting the PPARδ transcription factor; cited from earlier work.

Turning to `COc1ccc2c(c1)c(CC(=O)O)c(C)n2C(=O)c1ccc(Cl)cc1` [indomethacin], on PPARδ, the “inhibition of the observed activation of the FOP-αGFPT204I reporter gene in the presence of functional PPARδ-DNA binding sites” value is reported as “significantly inhibits”. Same read-out and setting: for `CSc1ccc(/C=C2/C(C)=C(CC(=O)O)c3cc(F)ccc32)cc1` [Sulindac sulphide] the value was “significantly inhibits”.

With `CC1=C(CC(=O)O)c2cc(F)ccc2/C1=C\c1ccc([S+](C)[O-])cc1` (stereo not shown) [sulindac], the “growth of tumor cells” value in the test on tumor cells is “able to inhibit the growth of tumor cells”.

Regarding `CC(=O)Oc1ccccc1C(=O)O` [aspirin], the “growth of tumor cells” value in the test on tumor cells is “able to inhibit the growth of tumor cells”.
